From ChEMBL document CHEMBL4627352, “New acrylamide-sulfisoxazole conjugates as dihydropteroate synthase inhibitors” (Bioorg Med Chem, 2020)
Converted amounts (≈) assume the structure as drawn. The source made the active and inactive calls. The rule behind the calls is not given here.

Legend:
[1] = test system: Escherichia coli ATCC 25922; test: Inhibition of DHPS in Escherichia coli ATCC 25922 assessed as inhibition of bacterial growth incubated for 24 hrs in presence of folate precursor, pABA by microbroth dilution method
Geotrichum candidum [2] = test: Inhibition of DHPS in Geotrichum candidum assessed as antifungal activity by measuring inhibition zone at 5 mg/mL incubated for 48 hrs by disk diffusion method
Escherichia coli [3] = test: Inhibition of DHPS in Escherichia coli assessed as antibacterial activity by measuring inhibition of bacterial growth incubated for 24 hrs by microbroth dilution method
Klebsiella pneumoniae [4] = test: Inhibition of DHPS in Klebsiella pneumoniae assessed as antibacterial activity by measuring inhibition of bacterial growth incubated for 24 hrs by microbroth dilution method
Geotrichum candidum [5] = test: Potency index, ratio of sulfisoxazole MIC to compound MIC for Geotrichum candidum assessed as inhibition of DHPS-mediated fungal growth incubated for 48 hrs by microbroth dilution method
Streptococcus pneumoniae [6] = test: Inhibition of DHPS in Streptococcus pneumoniae assessed as antibacterial activity by measuring inhibition zone at 5 mg/mL incubated for 24 hrs by disk diffusion method
Escherichia coli [7] = test: Inhibition of DHPS in Escherichia coli assessed as antibacterial activity by measuring inhibition zone at 5 mg/mL incubated for 24 hrs by disk diffusion method
Klebsiella pneumoniae [8] = test: Inhibition of DHPS in Klebsiella pneumoniae assessed as antibacterial activity by measuring inhibition zone at 5 mg/mL incubated for 24 hrs by disk diffusion method
Aspergillus fumigatus [9] = test: Potency index, ratio of sulfisoxazole MIC to compound MIC for Aspergillus fumigatus assessed as inhibition of DHPS-mediated fungal growth incubated for 48 hrs by microbroth dilution method
[10] = test system: Staphylococcus epidermidis; test: Inhibition of DHPS in Staphylococcus epidermidis assessed as antibacterial activity by measuring inhibition zone at 5 mg/mL incubated for 24 hrs by disk diffusion method
Geotrichum candidum [11] = test: Inhibition of DHPS in Geotrichum candidum assessed as antifungal activity by measuring inhibition of fungal growth incubated for 48 hrs by microbroth dilution method
Bacillus subtilis [12] = test: Inhibition of DHPS in Bacillus subtilis assessed as antibacterial activity by measuring inhibition of bacterial growth incubated for 24 hrs by microbroth dilution method
Aspergillus fumigatus [13] = test: Inhibition of DHPS in Aspergillus fumigatus assessed as antifungal activity by measuring inhibition zone at 5 mg/mL incubated for 48 hrs by disk diffusion method
Bacillus subtilis [14] = test: Inhibition of DHPS in Bacillus subtilis assessed as antibacterial activity by measuring inhibition zone at 5 mg/mL incubated for 24 hrs by disk diffusion method
[15] = test system: Escherichia coli ATCC 25922; test: Inhibition of DHPS in Escherichia coli ATCC 25922 assessed as inhibition of bacterial growth incubated for 24 hrs in presence of folate dependent metabolite, methionine by microbroth dilution method
Proteus vulgaris [16] = test: Inhibition of DHPS in Proteus vulgaris assessed as antibacterial activity by measuring inhibition zone at 5 mg/mL incubated for 24 hrs by disk diffusion method
[17] = test system: Staphylococcus epidermidis; test: Potency index, ratio of sulfisoxazole MIC to compound MIC for Staphylococcus epidermidis assessed as inhibition of DHPS-mediated bacterial growth incubated for 24 hrs by microbroth dilution method
[18] = test system: Syncephalastrum racemosum; test: Inhibition of DHPS in Syncephalastrum racemosum assessed as antifungal activity by measuring inhibition zone at 5 mg/mL incubated for 48 hrs by disk diffusion method
Aspergillus fumigatus [19] = test: Inhibition of DHPS in Aspergillus fumigatus assessed as antifungal activity by measuring inhibition of fungal growth incubated for 48 hrs by microbroth dilution method
Proteus vulgaris [20] = test: Inhibition of DHPS in Proteus vulgaris assessed as antibacterial activity by measuring inhibition of bacterial growth incubated for 24 hrs by microbroth dilution method
[21] = test system: Syncephalastrum racemosum; test: Inhibition of DHPS in Syncephalastrum racemosum assessed as antifungal activity by measuring inhibition of fungal growth incubated for 48 hrs by microbroth dilution method
[22] = test system: Staphylococcus epidermidis; test: Inhibition of DHPS in Staphylococcus epidermidis assessed as antibacterial activity by measuring inhibition of bacterial growth incubated for 24 hrs by microbroth dilution method
Klebsiella pneumoniae [23] = test: Potency index, ratio of sulfisoxazole MIC to compound MIC for Klebsiella pneumoniae assessed as inhibition of DHPS-mediated bacterial growth incubated for 24 hrs by microbroth dilution method
Streptococcus pneumoniae [24] = test: Inhibition of DHPS in Streptococcus pneumoniae assessed as antibacterial activity by measuring inhibition of bacterial growth incubated for 24 hrs by microbroth dilution method
Bacillus subtilis [25] = test: Potency index, ratio of ampicillin MIC to compound MIC for Bacillus subtilis assessed as inhibition of DHPS-mediated bacterial growth incubated for 24 hrs by microbroth dilution method
[26] = test system: Syncephalastrum racemosum; test: Potency index, ratio of amphotericin B MIC to compound MIC for Syncephalastrum racemosum assessed as inhibition of DHPS-mediated fungal growth incubated for 48 hrs by microbroth dilution method
Escherichia coli [27] = test: Potency index, ratio of gentamycin MIC to compound MIC for Escherichia coli assessed as inhibition of DHPS-mediated bacterial growth incubated for 24 hrs by microbroth dilution method
hTERT-BJ = test: Cytotoxicity against human hTERT-BJ1 cells at 50 uM by acid phosphatase assay relative to control; type: cell-based
Escherichia coli [28] = test: Potency index, ratio of sulfisoxazole MIC to compound MIC for Escherichia coli assessed as inhibition of DHPS-mediated bacterial growth incubated for 24 hrs by microbroth dilution method
[29] = test system: Syncephalastrum racemosum; test: Potency index, ratio of sulfisoxazole MIC to compound MIC for Syncephalastrum racemosum assessed as inhibition of DHPS-mediated fungal growth incubated for 48 hrs by microbroth dilution method

inhibition [1] | inhibition zone (IZ) (Geotrichum candidum [2]) [mm] | MIC (Escherichia coli [3]) [µg/mL] | MIC (Klebsiella pneumoniae [4]) [µg/mL] | inhibition zone (IZ) (Streptococcus pneumoniae [6]) [mm] | inhibition zone (IZ) (Escherichia coli [7]) [mm] | inhibition zone (IZ) (Klebsiella pneumoniae [8]) [mm] | inhibition zone (IZ) [10] [mm] | MIC (Geotrichum candidum [11]) [µg/mL] | MIC (Bacillus subtilis [12]) [µg/mL] | inhibition zone (IZ) (Aspergillus fumigatus [13]) [mm] | inhibition zone (IZ) (Bacillus subtilis [14]) [mm] | inhibition [15] | inhibition zone (IZ) (Proteus vulgaris [16]) | inhibition zone (IZ) [18] [mm] | MIC (Aspergillus fumigatus [19]) [µg/mL] | MIC (Proteus vulgaris [20]) [µg/mL] | MIC [21] [µg/mL] | MIC [22] [µg/mL] | MIC (Streptococcus pneumoniae [24]) [µg/mL] | Compound | other results
inactive | 18.9 | 1.95 (≈ 4.79 µM) | 0.98 (≈ 2.41 µM) | 20.3 | 20.6 | 22.6 | 20.8 | 3.9 (≈ 9.57 µM) | 0.98 (≈ 2.41 µM) | 18.6 | 22.4 | inactive | 18.3 mm | 17.2 | 3.9 (≈ 9.57 µM) | 7.81 (≈ 19.2 µM) | 15.6 (≈ 38.4 µM) | 1.95 (≈ 4.79 µM) | 3.9 (≈ 9.57 µM) | CN/C(S)=C(/C#N)C(=O)Nc1ccc(S(=O)(=O)Nc2onc(C)c2C)cc1 | Ratio (Geotrichum candidum [5]): 2; Ratio (Aspergillus fumigatus [9]): 4; Ratio [17]: 4; Ratio (Klebsiella pneumoniae [23]): 3
inactive | 22.1 | 7.81 (≈ 10.4 µM) | 0.98 (≈ 1.3 µM) | 25.3 | 21.3 | 18.8 | 24.7 | 0.98 (≈ 1.3 µM) | 1.95 (≈ 2.59 µM) | 24.2 | 27.5 | inactive | 21.4 mm | 21.3 | 3.9 (≈ 5.19 µM) | 7.81 (≈ 10.4 µM) | 15.6 (≈ 20.8 µM) | 3.9 (≈ 5.19 µM) | 3.9 (≈ 5.19 µM) | CCN/C(S[C@@H]1O[C@H](COC(C)=O)[C@@H](OC(C)=O)[C@H](OC(C)=O)[C@H]1OC(C)=O)=C(/C#N)C(=O)Nc1ccc(S(=O)(=O)Nc2onc(C)c2C)cc1 | Ratio (Geotrichum candidum [5]): 3 to 5; Ratio (Aspergillus fumigatus [9]): 4 to 6
inactive | 22.1 | 0.98 (≈ 2.12 µM) | 0.25 (≈ 0.542 µM) | 24.9 | 21.8 | 24.7 | 24.2 | 1.95 (≈ 4.22 µM) | 0.12 (≈ 0.26 µM) | 22.9 | 26.8 | inactive | 20.7 mm | 22.4 | 0.49 (≈ 1.06 µM) | 3.9 (≈ 8.45 µM) | 0.98 (≈ 2.12 µM) | 0.25 (≈ 0.542 µM) | 0.12 (≈ 0.26 µM) | C=CCN/C(SCC)=C(/C#N)C(=O)Nc1ccc(S(=O)(=O)Nc2onc(C)c2C)cc1 | Ratio (Bacillus subtilis [25]): 2; Ratio [26]: 3; Ratio (Escherichia coli [27]): 2
inactive | 18.3 | 7.81 (≈ 17.9 µM) | 1.95 (≈ 4.48 µM) | 20.2 | 18.2 | 21.3 | 20.9 | 7.81 (≈ 17.9 µM) | 0.98 (≈ 2.25 µM) | 17.1 | 21.2 | inactive | 16.4 mm | 19.9 | 15.6 (≈ 35.9 µM) | 31.2 (≈ 71.8 µM) | 3.9 (≈ 8.95 µM) | 1.95 (≈ 4.48 µM) | 3.9 (≈ 8.95 µM) | CCS/C(NC)=C(\C#N)C(=O)Nc1ccc(S(=O)(=O)Nc2onc(C)c2C)cc1 | Ratio [26]: 2; Activity (hTERT-BJ): 2.7%
inactive | 20.2 | 7.81 (≈ 10.2 µM) | 0.98 (≈ 1.28 µM) | 19.3 | 18.3 | 21.2 | 17.1 | 3.9 (≈ 5.11 µM) | 0.98 (≈ 1.28 µM) | 18.3 | 20.8 | inactive | 15.2 mm | 17.2 | 7.81 (≈ 10.2 µM) | 62.5 (≈ 81.8 µM) | 15.6 (≈ 20.5 µM) | 15.6 (≈ 20.5 µM) | 3.9 (≈ 5.11 µM) | C=CCN/C(S[C@@H]1O[C@H](COC(C)=O)[C@H](OC(C)=O)[C@H](OC(C)=O)[C@H]1OC(C)=O)=C(/C#N)C(=O)Nc1ccc(S(=O)(=O)Nc2onc(C)c2C)cc1 | Ratio (Escherichia coli [28]): 3; Ratio (Geotrichum candidum [5]): 2; Ratio (Aspergillus fumigatus [9]): 1 to 3; Ratio [29]: 1 to 3; Activity (hTERT-BJ): 28.6%; Ratio (Klebsiella pneumoniae [23]): 4
inactive | 16.9 | 15.6 (≈ 21.2 µM) | 31.2 (≈ 42.4 µM) | 17.3 | 16.3 | 17.1 | 15.4 | 62.5 (≈ 84.7 µM) | 15.6 (≈ 21.2 µM) | 16.3 | 16.8 | inactive | 11.8 mm | 15.1 | 31.2 (≈ 42.4 µM) | – | 62.5 (≈ 84.7 µM) | 62.5 (≈ 84.7 µM) | 15.6 (≈ 21.2 µM) | CN/C(S[C@@H]1O[C@H](COC(C)=O)[C@H](OC(C)=O)[C@H](OC(C)=O)[C@H]1OC(C)=O)=C(/C#N)C(=O)Nc1ccc(S(=O)(=O)Nc2onc(C)c2C)cc1 | Ratio (Aspergillus fumigatus [9]): 1 to 3; Ratio [29]: 1 to 3; Activity (hTERT-BJ): 26%
inactive | 20.4 | 1.95 (≈ 4.34 µM) | 0.49 (≈ 1.09 µM) | 24.3 | 20.6 | 23.2 | 22.8 | 3.9 (≈ 8.68 µM) | 0.12 (≈ 0.267 µM) | 21.6 | 26.3 | inactive | 19.6 mm | 20.3 | 0.98 (≈ 2.18 µM) | 3.9 (≈ 8.68 µM) | 3.9 (≈ 8.68 µM) | 0.49 (≈ 1.09 µM) | 0.12 (≈ 0.267 µM) | CCN/C(SCC)=C(/C#N)C(=O)Nc1ccc(S(=O)(=O)Nc2onc(C)c2C)cc1 | Ratio (Bacillus subtilis [25]): 2; Ratio [26]: 2; Activity (hTERT-BJ): 8.5%
inactive | 23.2 | 3.9 (≈ 5.11 µM) | 0.49 (≈ 0.642 µM) | 26.7 | 23.4 | 23.2 | 25.6 | 0.49 (≈ 0.642 µM) | 0.98 (≈ 1.28 µM) | 26.1 | 28.6 | inactive | inactive | 24.4 | 0.98 (≈ 1.28 µM) | – | 1.95 (≈ 2.55 µM) | 3.9 (≈ 5.11 µM) | 1.95 (≈ 2.55 µM) | C=CCN/C(S[C@@H]1O[C@H](COC(C)=O)[C@@H](OC(C)=O)[C@H](OC(C)=O)[C@H]1OC(C)=O)=C(/C#N)C(=O)Nc1ccc(S(=O)(=O)Nc2onc(C)c2C)cc1 | Ratio (Escherichia coli [28]): 4; Ratio (Geotrichum candidum [5]): 3 to 5; Ratio [26]: 2; Ratio (Aspergillus fumigatus [9]): 4 to 6; Activity (hTERT-BJ): 15.2%
inactive | 18.3 | 7.81 (≈ 10.4 µM) | 7.81 (≈ 10.4 µM) | 18.9 | 17.1 | 19.8 | 16.3 | 31.2 (≈ 41.6 µM) | 7.8 (≈ 10.4 µM) | 17.2 | 17.6 | inactive | 13.4 mm | 15.9 | 15.6 (≈ 20.8 µM) | 125 (≈ 166 µM) | 31.2 (≈ 41.6 µM) | 31.2 (≈ 41.6 µM) | 7.8 (≈ 10.4 µM) | CCN/C(S[C@@H]1O[C@H](COC(C)=O)[C@H](OC(C)=O)[C@H](OC(C)=O)[C@H]1OC(C)=O)=C(/C#N)C(=O)Nc1ccc(S(=O)(=O)Nc2onc(C)c2C)cc1 | Ratio (Escherichia coli [28]): 3; Ratio (Aspergillus fumigatus [9]): 1 to 3; Ratio [29]: 1 to 3
